Results from ChEMBL document CHEMBL1201862, “PubChem BioAssay data set” (2004).
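Following 48 hours of exposure in 96-well plates, responses at five concentrations were used to interpolate endpoints linearly. GI50 marks 50% less growth.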 Calls of active or inactive are those of the source. Cut-off read from the data, not from the text of the source: active = GI50 up to about 1.1 µM and inactive = higher.

Assays:
Assay in all cases: NCI-60 cell line screen, 48 h
Malme-3M = tested on: Malme-3M
OVCAR-5 = tested on: OVCAR-5
A498 = tested on: A498
ACHN = tested on: ACHN
SR = tested on: SR
SN12C = tested on: SN12C
OVCAR-4 = tested on: OVCAR-4
HCC 2998 = tested on: HCC 2998
OVCAR-3 = tested on: OVCAR-3
UACC-62 = tested on: UACC-62
EKVX = tested on: EKVX
SNB-75 = tested on: SNB-75
SF-295 = tested on: SF-295
DMS-114 = tested on: DMS-114
HCT-116 = tested on: HCT-116
CCRF-CEM = tested on: CCRF-CEM

Structure (SMILES) | GI50 (Malme-3M) | GI50 (OVCAR-5) | GI50 (A498) | GI50 (ACHN) | GI50 (SR) | GI50 (SN12C) | GI50 (OVCAR-4) | GI50 (HCC 2998) | GI50 (OVCAR-3) | GI50 (UACC-62) | GI50 (EKVX) | GI50 (SNB-75) | GI50 (SF-295) | GI50 (DMS-114) | GI50 (HCT-116) | GI50 (CCRF-CEM)
CCC(=O)N1C(=S)SC[C@H]1C(=O)OC | > 100 µM (inactive) | > 100 µM (inactive) | > 100 µM (inactive) | > 100 µM (inactive) | > 100 µM (inactive) | > 100 µM (inactive) | > 100 µM (inactive) | > 100 µM (inactive) | > 100 µM (inactive) | > 100 µM (inactive) | > 100 µM (inactive) | > 100 µM (inactive) | > 100 µM (inactive) | > 100 µM (inactive) | > 100 µM (inactive) | 69.2 µM (inactive)
Clc1ccccc1CN1COc2c(ccc3cccnc23)C1 | 4.78 µM (inactive) | 7.41 µM (inactive) | 8.24 µM (inactive) | 3.72 µM (inactive) | – | 6.93 µM (inactive) | 3.6 µM (inactive) | 6.95 µM (inactive) | 3.32 µM (inactive) | 3.09 µM (inactive) | 4.46 µM (inactive) | 7.91 µM (inactive) | 3.2 µM (inactive) | 2.67 µM (inactive) | 3.07 µM (inactive) | 0.405 µM (active)
COC(=O)C1C(=O)CC2CCCCC21 (configuration not stated) | > 100 µM (inactive) | – | > 100 µM (inactive) | > 100 µM (inactive) | > 100 µM (inactive) | > 100 µM (inactive) | > 100 µM (inactive) | > 100 µM (inactive) | > 100 µM (inactive) | > 100 µM (inactive) | – | > 100 µM (inactive) | – | > 100 µM (inactive) | > 100 µM (inactive) | > 100 µM (inactive)
CCOP1(=O)C=C(C)C(Cl)=C(C)C1 (configuration not stated) | – | 43.9 µM (inactive) | – | 24.6 µM (inactive) | 27.2 µM (inactive) | 21 µM (inactive) | 24.2 µM (inactive) | 80.2 µM (inactive) | 37.3 µM (inactive) | 14.9 µM (inactive) | > 100 µM (inactive) | 15.4 µM (inactive) | 47.1 µM (inactive) | 17.5 µM (inactive) | 17.2 µM (inactive) | 17.6 µM (inactive)
Cc1ccccc1NC(=O)C1C(=O)N(c2ccccc2C)C(=O)/C1=N\N (configuration not stated) | > 100 µM (inactive) | > 100 µM (inactive) | > 100 µM (inactive) | > 100 µM (inactive) | > 100 µM (inactive) | > 100 µM (inactive) | > 100 µM (inactive) | > 100 µM (inactive) | > 100 µM (inactive) | > 100 µM (inactive) | > 100 µM (inactive) | > 100 µM (inactive) | > 100 µM (inactive) | > 100 µM (inactive) | > 100 µM (inactive) | > 100 µM (inactive)
CCOC(=O)C(=O)Nc1ccc(C)c(C)c1 | > 100 µM (inactive) | > 100 µM (inactive) | > 100 µM (inactive) | > 100 µM (inactive) | < 0.01 µM (active) | > 100 µM (inactive) | > 100 µM (inactive) | > 100 µM (inactive) | – | > 100 µM (inactive) | > 100 µM (inactive) | > 100 µM (inactive) | > 100 µM (inactive) | > 40.9 µM (inactive) | > 84.7 µM (inactive) | > 100 µM (inactive)
NCCCCCCNCc1cccc2ccccc12 | 19.1 µM (inactive) | > 100 µM (inactive) | – | > 100 µM (inactive) | 45.3 µM (inactive) | > 100 µM (inactive) | > 100 µM (inactive) | – | > 100 µM (inactive) | > 100 µM (inactive) | > 100 µM (inactive) | > 100 µM (inactive) | > 100 µM (inactive) | > 100 µM (inactive) | 95.1 µM (inactive) | > 10 µM (inactive)
O=C(/C=C/c1ccccc1O)c1cccc2ccccc12 | > 100 µM (inactive) | > 100 µM (inactive) | > 100 µM (inactive) | > 100 µM (inactive) | 31.3 µM (inactive) | 44.4 µM (inactive) | 56.8 µM (inactive) | > 74.1 µM (inactive) | 30.2 µM (inactive) | > 100 µM (inactive) | > 87.9 µM (inactive) | 48.8 µM (inactive) | > 100 µM (inactive) | 21.4 µM (inactive) | 27.6 µM (inactive) | 18.2 µM (inactive)
N=C(N)SCc1cn2ccccc2n1 | > 100 µM (inactive) | > 100 µM (inactive) | – | > 100 µM (inactive) | > 100 µM (inactive) | > 100 µM (inactive) | > 100 µM (inactive) | > 100 µM (inactive) | > 100 µM (inactive) | – | > 100 µM (inactive) | > 100 µM (inactive) | > 100 µM (inactive) | > 100 µM (inactive) | > 100 µM (inactive) | > 100 µM (inactive)
COc1ccc2cc1Oc1ccc(cc1)CC1c3cc(c(OC)cc3CCN1C)Oc1c3c(cc4c1C(C2)N(C)CC4)OCO3 (configuration not stated) | – | 18.2 µM (inactive) | – | 4.58 µM (inactive) | 7.85 µM (inactive) | 11.4 µM (inactive) | 4.58 µM (inactive) | 11.5 µM (inactive) | 15.7 µM (inactive) | 16.2 µM (inactive) | 14.9 µM (inactive) | 3.74 µM (inactive) | 10.3 µM (inactive) | 5.74 µM (inactive) | 12.8 µM (inactive) | 13.2 µM (inactive)
CC1=C(C(=O)Nc2ccccc2C)C(c2ccc(C3C(C(=O)Nc4ccccc4C)=CNC=C3C(=O)Nc3ccccc3C)cc2)C(C(=O)Nc2ccccc2C)=C(C)N1 | 19.1 µM (inactive) | 21.6 µM (inactive) | 20.7 µM (inactive) | 16.4 µM (inactive) | 3.22 µM (inactive) | 14.8 µM (inactive) | 14.7 µM (inactive) | 17.8 µM (inactive) | 20.3 µM (inactive) | 12.7 µM (inactive) | 17.9 µM (inactive) | 19.5 µM (inactive) | 19.3 µM (inactive) | 23.3 µM (inactive) | 19.5 µM (inactive) | 3.15 µM (inactive)
O=C1OC2(c3ccccc3Oc3ccccc32)c2ccccc21 | > 100 µM (inactive) | > 100 µM (inactive) | > 100 µM (inactive) | > 100 µM (inactive) | > 100 µM (inactive) | > 100 µM (inactive) | > 100 µM (inactive) | > 100 µM (inactive) | > 100 µM (inactive) | > 100 µM (inactive) | > 100 µM (inactive) | > 100 µM (inactive) | > 100 µM (inactive) | > 100 µM (inactive) | > 100 µM (inactive) | > 100 µM (inactive)
OC(c1cc2ccccc2[nH]1)C(O)(c1cc2ccccc2[nH]1)c1cc2ccccc2[nH]1 (configuration not stated) | 28.4 µM (inactive) | 57.8 µM (inactive) | – | 18.6 µM (inactive) | 7.69 µM (inactive) | 5.53 µM (inactive) | – | 8.09 µM (inactive) | 4.28 µM (inactive) | 5.97 µM (inactive) | 12.3 µM (inactive) | – | 7.23 µM (inactive) | 7.31 µM (inactive) | 6.92 µM (inactive) | 12.3 µM (inactive)
Cc1ccc(SCC(=O)C2=C(O)CCCC2=O)cc1 | > 100 µM (inactive) | > 100 µM (inactive) | – | > 100 µM (inactive) | > 100 µM (inactive) | > 100 µM (inactive) | > 100 µM (inactive) | – | > 100 µM (inactive) | > 100 µM (inactive) | > 100 µM (inactive) | > 100 µM (inactive) | > 100 µM (inactive) | > 100 µM (inactive) | > 100 µM (inactive) | 40.6 µM (inactive)
CC1C2CC=CC(=O)[C@@]2(C)CCC12OCCO2 (some centres not stated) | 17.5 µM (inactive) | > 100 µM (inactive) | > 100 µM (inactive) | > 100 µM (inactive) | > 100 µM (inactive) | > 100 µM (inactive) | > 100 µM (inactive) | > 100 µM (inactive) | > 100 µM (inactive) | > 100 µM (inactive) | > 100 µM (inactive) | 97.3 µM (inactive) | > 100 µM (inactive) | > 100 µM (inactive) | > 100 µM (inactive) | > 100 µM (inactive)
CC(=O)O[C@H]1CSC[C@@H](OC(C)=O)C1[N+](=O)[O-] (some centres not stated) | 23 µM (inactive) | > 100 µM (inactive) | > 100 µM (inactive) | 93.5 µM (inactive) | – | > 100 µM (inactive) | 54.8 µM (inactive) | 33.7 µM (inactive) | 21.5 µM (inactive) | 65.8 µM (inactive) | > 100 µM (inactive) | 65.2 µM (inactive) | > 100 µM (inactive) | 39.1 µM (inactive) | 95.3 µM (inactive) | 19.5 µM (inactive)
C=C1C(=O)O[C@@H]2[C@H]1CCC(C)=C1C=CC(=O)[C@]12C | > 10 µM (inactive) | 17.9 µM (inactive) | – | 16.1 µM (inactive) | 13.6 µM (inactive) | 12.6 µM (inactive) | – | 13.2 µM (inactive) | 16.7 µM (inactive) | 10.3 µM (inactive) | 17 µM (inactive) | 18.9 µM (inactive) | 17 µM (inactive) | 14.3 µM (inactive) | 12.2 µM (inactive) | 3.15 µM (inactive)
CCC1(c2ccncc2)CCC(=O)NC1=O (configuration not stated) [ROGLETIMIDE] | > 100 µM (inactive) | > 100 µM (inactive) | > 100 µM (inactive) | > 100 µM (inactive) | > 100 µM (inactive) | > 100 µM (inactive) | > 100 µM (inactive) | > 100 µM (inactive) | > 100 µM (inactive) | > 100 µM (inactive) | > 100 µM (inactive) | > 100 µM (inactive) | > 100 µM (inactive) | > 100 µM (inactive) | > 100 µM (inactive) | > 100 µM (inactive)
